16 compounds from article PMC8815882, “Screening the pandemic response box identified benzimidazole carbamates, Olorofim and ravuconazole as promising drug candidates for the treatment of eumycetoma” (PLoS Neglected Tropical Diseases, 2022) can be followed below.

The assay relates to M. mycetomatis genome strain MM55. Put plainly: CLSI M38-A2 based in vitro susceptibility screening (XTT or resazurin), growth at fixed concentration. The note with it: Madurella mycetomatis; for Percent fungal survival at 100 µM: read-out: Percentage survival at 100um, 100 uM A (second replicate column). The class given is cell-based, Madurella mycetomatis. (Formazan colour is commonly taken as a measure of viable cells.)

Setting [1] is: 25 uM, replicate A, MM55, read-out: Percentage survival at 25um, 25 um A.
[2] abbreviates: mean of replicates, MM55, read-out: Percentage survival at 100um, 100 uM mean.
Where [3] appears, read: replicate 1, MM55, read-out: Percentage survival at 100um, 100 uM A.
Setting [4] is: replicate 2, MM55, read-out: Percentage survival at 100um, 100 uM A.
The mark [5] stands for this setting: replicate 3, MM55, read-out: Percentage survival at 100um, 100 uM A.
[6] abbreviates: 25 uM, mean of replicates, read-out: Percentage survival at 25um, 25 uM mean.
Setting [7] is: 25 uM, replicate A, read-out: Percentage survival at 25um, 25 um A.
The mark [8] stands for this setting: 25 uM, replicate B, read-out: Percentage survival at 25um, 25 uM B.
[9] abbreviates: 25 uM, replicate C, read-out: Percentage survival at 25um, 25 uM C.
The mark [10] stands for this setting: mean of replicates, read-out: Percentage survival at 100um, 100 uM mean.
The mark [11] stands for this setting: replicate 1, read-out: Percentage survival at 100um, 100 uM A.
[12] abbreviates: replicate 2, read-out: Percentage survival at 100um, 100 uM A.
Setting [13] is: replicate 3, read-out: Percentage survival at 100um, 100 uM A.
The mark [14] stands for this setting: 25 uM, mean of three replicates, read-out: Percentage survival at 25um, 25 uM mean.
Where [15] appears, read: first replicate column, read-out: Percentage survival at 100um, 100 uM A.
The mark [16] stands for this setting: mean of three replicates, read-out: Percentage survival at 100um, 100 uM mean.
[17] abbreviates: second replicate column, read-out: Percentage survival at 100um, 100 uM A.
[18] abbreviates: third replicate column, read-out: Percentage survival at 100um, 100 uM A.
Setting [19] is: 25 uM, mean of three, M. mycetomatis MM55, read-out: Percentage survival at 25um, 25 uM mean.
Where [20] appears, read: 25 uM, replicate A, M. mycetomatis MM55, read-out: Percentage survival at 25um, 25 um A.
[21] abbreviates: 25 uM, replicate B, M. mycetomatis MM55, read-out: Percentage survival at 25um, 25 uM B.
Where [22] appears, read: 25 uM, replicate C, M. mycetomatis MM55, read-out: Percentage survival at 25um, 25 uM C.
Setting [23] is: mean of three, M. mycetomatis MM55, read-out: Percentage survival at 100um, 100 uM mean.
Setting [24] is: replicate 1, M. mycetomatis MM55, read-out: Percentage survival at 100um, 100 uM A (first replicate column).
[25] abbreviates: replicate 2, M. mycetomatis MM55.
Setting [26] is: replicate 3, M. mycetomatis MM55, read-out: Percentage survival at 100um, 100 uM A (third replicate column).
Where [27] appears, read: 25 uM, mean, read-out: Percentage survival at 25um, 25 uM mean.
[28] abbreviates: mean, read-out: Percentage survival at 100um, 100 uM mean.
Where [29] appears, read: replicate (first column), read-out: Percentage survival at 100um, 100 uM A.
Setting [30] is: replicate (second column), read-out: Percentage survival at 100um, 100 uM A.
Where [31] appears, read: replicate (third column), read-out: Percentage survival at 100um, 100 uM A.
Where [32] appears, read: replicate 1, read-out: Percentage survival at 100um, 100 uM A (first replicate column).
[33] abbreviates: replicate 3, read-out: Percentage survival at 100um, 100 uM A (third replicate column).
Setting [34] is: 25 uM, mean of replicates, MM55, read-out: Percentage survival at 25um, 25 uM mean.
Where [35] appears, read: 25 uM, replicate B, MM55, read-out: Percentage survival at 25um, 25 uM B.
The mark [36] stands for this setting: 25 uM, replicate C, MM55, read-out: Percentage survival at 25um, 25 uM C.

Molecules are shown by their SMILES. Like-named read-outs stand apart in the source and are kept apart here.

For `CC[C@@]1(O)C(=O)OCc2c1cc1n(c2=O)Cc2cc3c([N+](=O)[O-])cccc3nc2-1` [MMV1580796], the activity at 25 µM came out at 95.3% under setting [1]; 102% (read-out: Percentage survival at 25um, 25 uM B); 81.7% (read-out: Percentage survival at 25um, 25 uM C); 93.1% (read-out: Percentage survival at 25um, 25 uM mean). In addition, the activity at 100 µM came to 86.8% under setting [2], 97.1% under setting [3], 84.7% under setting [4] and 78.6% under setting [5].

For `O=C(Nc1ccc(F)cc1)c1nn(-c2ccccc2)c(=O)cc1Cl` [MMV1578555], the activity at 25 µM runs as follows: under setting [6], 76.7%; under setting [7], 84.2%; under setting [8], 79.1%; under setting [9], 66.7%. Besides, the activity at 100 µM runs as follows: under setting [10], 1.51%; under setting [11], 0.758%; under setting [12], 0.453%; under setting [13], 3.31%.

In the case of `O=S(=O)(Nc1ccc(O)cc1)c1cccc2cccnc12` [MMV251679], the activity at 25 µM is, setting by setting: under setting [14], 86.4%; under setting [7], 84.9%; under setting [8], 92.9%; under setting [9], 81.3%. For the same compound, the activity at 100 µM came to 98.4% under setting [15], 91.6% under setting [16], 87.2% under setting [17] and 89.3% under setting [18].

Take `CC1CCc2c(N3CCC(O)CC3)c(F)cc3c(=O)c(C(=O)O)cn1c23` (centres unmarked) [MMV637659]: the activity at 25 µM under setting [6] is 88.6%, the activity at 25 µM under setting [7] came to 77.6%, the activity at 25 µM under setting [8] is 95.3% and the activity at 25 µM under setting [9] was 93%. Further, the activity at 100 µM is, setting by setting: under setting [10], 77.8%; under setting [11], 65.4%; under setting [12], 81.1%; under setting [13], 86.9%.

Regarding `OC1O[C@H](CSc2ccc(F)cc2)[C@@H](O)[C@H]1O` (some centres unmarked) [MMV1581550], the activity at 25 µM worked out at 91% under setting [19], 97.5% under setting [20], 90.1% under setting [21] and 85.4% under setting [22]. The activity at 100 µM reads like this: under setting [23], 85.6%; under setting [24], 80.9%; under setting [26], 83.9%. The Percent fungal survival at 100 µM under setting [25] is 92.1%.

On to `c1ccc(-c2nnc3c4ccccc4c(N4CCNCC4)nn23)cc1` [MMV1581551], for which the activity at 25 µM by setting is: under setting [27], 84.6%; under setting [7], 93.2%; under setting [8], 85.9%; under setting [9], 74.8%. The activity at 100 µM reads like this: under setting [28], 37%; under setting [29], 10.9%; under setting [30], 52.3%; under setting [31], 47.9%.

Turning to `C[C@H](NC(=O)C(=O)Nc1ccccc1C(C)(C)C)C(=O)N[C@@H](CC(=O)O)C(=O)COc1c(F)c(F)cc(F)c1F` [MMV1580794], the activity at 25 µM was 43.5% under setting [14], 71.1% under setting [7], -10.5% under setting [8] and 70% under setting [9]. For the same compound, the activity at 100 µM reads like this: under setting [16], 70.9%; under setting [32], 64.2%; under setting [33], 87.8%. Besides, the Percent fungal survival at 100 µM (replicate 2) stood at 60.7%.

Regarding `C[C@@]1(O)[C@H](O)[C@@H](CO)O[C@H]1n1ccc2c(N)ncnc21` [MMV1593519], the activity at 25 µM under setting [14] was 94.2%, the activity at 25 µM under setting [7] worked out at 94.4%, the activity at 25 µM under setting [8] was 105% and the activity at 25 µM under setting [9] worked out at 83.4%. The activity at 100 µM under setting [15] was 80.2%, the activity at 100 µM under setting [16] came out at 86.2%, the activity at 100 µM under setting [17] is 92.3% and the activity at 100 µM under setting [18] is 86.2%.

Consider `CC(=O)N[C@H](C)C(=O)N[C@H](Cc1ccccc1)C(=O)O` [MMV1580845], for which the activity at 25 µM by setting is: under setting [14], 87.9%; under setting [7], 86.4%; under setting [8], 86.8%; under setting [9], 90.5%. Moreover, the activity at 100 µM was 86.9% under setting [16], 88.3% under setting [32] and 88.3% under setting [33]. Besides, for the setting “replicate 2”, the Percent fungal survival at 100 µM is 84.1%.

Turning to `COC(=O)Nc1nc2ccc([S+]([O-])c3ccccc3)cc2[nH]1` (centres unmarked) [MMV002565, Oxfendazole, reference compound], the activity at 25 µM is, setting by setting: under setting [27], 87.4%; under setting [7], 91.3%; under setting [8], 87.4%; under setting [9], 83.6%. In addition, the activity at 100 µM under setting [28] worked out at 76.1%, the activity at 100 µM under setting [29] was found to be 83.9%, the activity at 100 µM under setting [30] is 71.1% and the activity at 100 µM under setting [31] was determined as 73.2%.

For `NNC(=O)c1ccncc1` [MMV002169], the activity at 25 µM came to 85.6% under setting [14], 90.1% under setting [7], 80.7% under setting [8] and 85.9% under setting [9]. In addition, the activity at 100 µM under setting [16] worked out at 85.3%, the activity at 100 µM under setting [32] amounted to 84.8% and the activity at 100 µM under setting [33] came out at 89.3%. Further, the Percent fungal survival at 100 µM (replicate 2) is 81.9%.

Regarding `CCOc1ccc(C(=O)NCCc2ccccc2)cc1` [MMV124656], the activity at 25 µM under setting [14] worked out at 89.4%, the activity at 25 µM under setting [7] was determined as 88.1%, the activity at 25 µM under setting [8] was determined as 108% and the activity at 25 µM under setting [9] amounted to 71.9%. For the same compound, the activity at 100 µM runs as follows: under setting [16], 57.6%; under setting [32], 63.4%; under setting [33], 60.4%. Further, where the note is “replicate 2”, the Percent fungal survival at 100 µM is 48.9%.

`C[C@H]1COc2c(N3CCN(C)CC3)c(F)cc3c(=O)c(C(=O)O)cn1c23` [MMV687798]: the activity at 25 µM reads like this: under setting [34], 96.2%; under setting [1], 101%; under setting [35], 105%; under setting [36], 82.9%. The activity at 100 µM came out at 91.4% under setting [2], 97.4% under setting [3], 91.1% under setting [4] and 85.7% under setting [5].

For `Cc1nc(N(C)C(=O)Cc2ccc(-c3ccccn3)cc2)sc1S(N)(=O)=O` [MMV1580486], the activity at 25 µM under setting [34] turned out to be 82.6%, the activity at 25 µM under setting [1] came to 102%, the activity at 25 µM under setting [35] amounted to 96.5% and the activity at 25 µM under setting [36] was 49.6%. In addition, the activity at 100 µM came to 83.5% under setting [2], 93.3% under setting [3], 93.6% under setting [4] and 63.7% under setting [5].

Turning to `O=C(NCc1ccccc1Cl)c1cnc2ccccc2n1` [MMV1230557], the activity at 25 µM reads like this: under setting [19], 56.8%; under setting [20], 50.8%; under setting [21], 54.2%; under setting [22], 65.3%. For the same compound, the activity at 100 µM under setting [23] was determined as 67.2%, the activity at 100 µM under setting [24] was found to be 41.9% and the activity at 100 µM under setting [26] was 88.1%. The Percent fungal survival at 100 µM under setting [25] stood at 71.7%.

In the case of `Nc1cc(N)c2nc(-c3ccccc3)c(Nc3ccc(F)cc3)nc2c1` [MMV1581554], the activity at 25 µM under setting [19] is 92.5%, the activity at 25 µM under setting [20] was found to be 97.1%, the activity at 25 µM under setting [21] was determined as 91.3% and the activity at 25 µM under setting [22] worked out at 89.3%. Moreover, the activity at 100 µM under setting [23] worked out at 89.9%, the activity at 100 µM under setting [24] amounted to 116% and the activity at 100 µM under setting [26] came to 73.1%. Under setting [25], the Percent fungal survival at 100 µM turned out to be 80.3%.
